As usually defined, the IC50 is the concentration at which inhibition is half-maximal.

Molecules are shown by their SMILES.

Consider two compounds from ChEMBL document CHEMBL1157838, “Cryptosphaerolide, a cytotoxic Mcl-1 inhibitor from a marine-derived ascomycete related to the genus Cryptosphaeria” (J Nat Prod, 2010).

The target in experiment [1] is Induced myeloid leukemia cell differentiation protein Mcl-1 (Homo sapiens, UniProt Q07820). In words: Inhibition of Mcl1 protein by Mcl1/Bak fluorescence resonance assay.
Induced myeloid leukemia cell differentiation protein Mcl-1, sequence (Q07820 whole entry): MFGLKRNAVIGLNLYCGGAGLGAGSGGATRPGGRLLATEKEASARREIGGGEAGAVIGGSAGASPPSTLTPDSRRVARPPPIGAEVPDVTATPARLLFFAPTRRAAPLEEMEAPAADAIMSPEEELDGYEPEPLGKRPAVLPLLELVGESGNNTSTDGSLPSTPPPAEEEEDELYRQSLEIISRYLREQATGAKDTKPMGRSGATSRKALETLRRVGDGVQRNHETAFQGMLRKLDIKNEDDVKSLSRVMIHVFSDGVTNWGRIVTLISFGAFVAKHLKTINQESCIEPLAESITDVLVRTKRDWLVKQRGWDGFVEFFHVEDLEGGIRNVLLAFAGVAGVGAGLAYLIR
A further experiment has as its system HCT-116. Nature of the experiment: Cytotoxicity against human HCT116 cells after 72 hrs by MTS/PMS assay. In kind it is functional, cell-based. The settings on record: HCT-116, 72 h.

Consider `C=C1CO[C@@]2(OC)[C@H]3O[C@]34[C@H](OC(=O)C(O)(CO)CC(C)CC(C)CC)CC[C@H](C)[C@@]4(C)C[C@@H]12` (stereo partly drawn), for which half-maximal inhibition in experiment [1] (IC50) required 12.5 µM.

Regarding `C=C1CO[C@@]2(O)[C@H]3O[C@]34[C@H](OC(=O)C(O)(CO)CC(C)CC(C)CC)CC[C@H](C)[C@@]4(C)C[C@@H]12` (stereo partly drawn) [CRYPTOSPHAEROLIDE], the IC50 in the experiment on HCT-116 is 4.5 µM; in experiment [1], 11.4 µM.
